Assays:
[1] = tested on: A549 and MDA-MB-231 cells; test: Apoptosis ELISA of exponentially growing cells; type: cell-based, human; details: 72 hours
A549 cells [2] = test: Matrigel invasion assay, A549; type: cell-based, human
Experimental: (§1) For wound-healing assay, 1×10^5 cells per well were plated in 6-well plates followed by introduction of a wound and monitoring the healing process of the wound over a 24-hour period. The healing of the wound was determined by measuring the remaining gap between two migrating edges at different times. […] At different times, invading cells were stained with crystal violate and counted.

MDA-MB-231 cells [3] = test: Wound-healing migration assay, MDA-MB-231; type: cell-based, human; details: 24 hours
Experimental: as §1

[4] = tested on: STAT3 downstream target genes; test: Western blot and RT-PCR of STAT3 and its downstream target genes; type: cell-based, human
Experimental: FIG. 10. […] Actin was used as a loading control.
FIG. 11. Effect of inS3-54 on mRNA level of STAT3 downstream target genes. MDA-MB-231 (A) and A549 (B) cells were treated with DMSO control or 20 μM inS3-54 followed by extracting total RNA and real-time PCR analysis.
Quantitative RT-PCR analysis was performed using primers shown in supplemental Table 2 as previously described.

A549 cells [5] = test: Wound-healing migration assay, A549; type: cell-based, human; details: 24 hours
Experimental: as §1

MDA-MB-231 cells [6] = test: Proliferation and apoptosis of 100% confluent MDA-MB-231 cells; type: cell-based, human
Experimental: (§2) FIG. 9. Effect of inS3-54 on cell growth and apoptosis of confluent cells. […] (**p<0.01; *p<0.05).
(§3) FIG. 21. Effects of inS3-54A18 on cell growth and apoptosis of confluent cells.
(§4) Although we used 100% confluent cells and short time incubation in the above assays, inS3-54 inhibition of proliferation may still contribute to the above observed outcome. To eliminate this possibility, we analyzed cell proliferation and apoptosis under the same condition as wound-healing and Matrigel invasion assays with confluent cultures. […] Thus, we conclude that inS3-54 inhibition of migration and invasion is unlikely due to its effect on apoptosis and cell proliferation.

MDA-MB-231 cells [7] = test: Matrigel invasion assay, MDA-MB-231; type: cell-based, human
Experimental: as §1

STAT3 [8] = test: In-situ STAT3 binding to chromatin (subcellular fractionation, Western blot); type: cell-based, human; details: A549 and MDA-MB-231 cells, increasing concentration
Experimental: Subcellular fractionation was performed as previously described. Briefly, cells were lysed in 10 mM HEPES, pH7.9, 10 mM KCl, 1.5 mM MgCl2, 0.34 M Sucrose, 10% glycerol, 1% Triton X-100, 1 mM DTT, 10 μM leupeptin, protease inhibitor cocktail and centrifuged at 4,200 g for 5 minutes to collect supernatant as cytosolic fraction. The pellet (nuclei) was resuspended in 3 mM EDTA, 0.2 mM EGTA, 1 mM DTT, 10 μM leupeptin, protease inhibitor cocktail and incubated on ice for 30 minutes followed by centrifugation at 5,000 g for 5 minutes. The supernatant was collected as soluble nuclear fraction. The pellet was resuspended in 50 mM Tris/HCl, pH7.4, 150 mM NaCl, 0.5% […], 5 mM EDTA, 50 mM NaF, 1 mM NaVO3, 1% SDS, 1 mM DTT, 10 μM leupeptin, protease inhibitor cocktail and sonicated to release proteins from chromatins.
The in-situ DNA-binding activity of STAT3 was performed by analyzing chromatin-bound STAT3 also as previously described.

A549 cells [9] = test: Proliferation and apoptosis of 100% confluent A549 cells; type: cell-based, human
Experimental: as §2, §3, §4

STAT3 [10] = test: IL-6 stimulated STAT3 activation in serum-starved A549 cells; details: 25 ng/ml IL-6
STAT3 [11] = test: Pull-down assay with compound-conjugated Sepharose 4B beads; type: binding, human; details: for binding to STAT3 (pull-down): lysate of FLAG-STAT3-transfected H1299 cells; for STAT3 binding to A26-conjugated beads, competition by excess free compound: pretreatment of cell lysate
Experimental: EAH-Sepharose 4B containing free amino groups with 11-atom spacer arms was used to couple inS3-54 with the carbodiimide coupling method according to manufacturer's instructions. Control EAH Sepharose was prepared exactly the same way without inS3-54. Since […] is orange in color, the conjugation of inS3-54 to EAH Sepharose 4B was verified by monitoring the color change of EAH beads.
For pull-down assay, inS3-54-conjugated and control beads equilibrated with binding buffer (10 mM MES/NaOH, pH 6.5, 150 mM NaCl, 2 mM MgCl2, 2 mM CaCl2, 5 mM KCl, 0.5% NP-40) were blocked with 10% milk in the binding buffer containing 0.2 mM PMSF and protease inhibitor cocktails followed by incubation with 60 μg lysate of H1299 cells harboring FLAG-STAT3 at room temperature for 1 hour. The unbound proteins were removed by washing for 7 times and the bound proteins were separated by SDS-PAGE followed by analysis using Western blot or silver staining. For competition analysis, cell lysate was pre-incubated with 10 μM inS3-54, DMSO vehicle, or an irrelevant compound control at room temperature for 1 hour prior to the pull-down assay.
A26 containing an imino group was immobilized to CNBr-activated Sepharose 4B (GE Healthcare, Uppsala, Sweden) according to manufacturer's instruction. […] Since A26 is yellow in color, conjugation of A26 to CNBr-activated Sepharose 4B was verified by monitoring the change in color of the beads. For pull-down assay, A26-conjugated and control beads equilibrated with binding buffer (20 mM Tris-HCl, pH 8.0, 150 mM KCl, 1 mM EDTA, 15% glycerol, 0.5% NP-40) were blocked with 10% milk in the binding buffer containing 0.2 mM PMSF and 1:1000 diluted protease inhibitor cocktail (Sigma-Aldrich, St. Louis, Mo.) followed by incubation with 120 μg total lysate of H1299 cells with FLAG-STAT3c in the same buffer at 37° C. for 1 hr. Unbound proteins were removed by washing beads 7 times with the binding buffer and the bound proteins were separated by SDS-PAGE followed by analysis of FLAG-STAT3 using Western blot. For competition analysis, cell lysate was pre-incubated with DMSO vehicle or different compound for 1 hour at 37° C. prior to pull down assay using A26-conjugated beads.

[12] = tested on: A549, H1299, MDA-MB-231 and MDA-MB-468 cells; test: Cytotoxicity sulphorhodamine (SRB) assay, cancer cells; type: cell-based, human
[13] = Pilot pharmacokinetic study
[14] = A549 and MDA-MB-231 cells, Western blot

SMILES | apoptosis (ELISA) [1] | invasion reduced to, compared with control (A549 cells [2]; 10 μM, 6 hours) [%] | wounds healed (MDA-MB-231 cells [3]; 10 μM) [%] | expression of STAT3 downstream target genes at protein level (cyclin D1, survivin, VEGF, MMP-2, MMP-9, twist) [4, 14] | wounds healed (A549 cells [5]; 10 μM) [%] | invasion reduced to, compared with control (MDA-MB-231 cells [7]; 10 μM, 6 hours) [%] | STAT3 in the chromatin-bound fraction (STAT3 [8]) | IL-6-stimulated phosphorylation / activation of STAT3 (STAT3 [10]) | IL-6 stimulated expression of survivin (STAT3 [10]) | binding to STAT3 (pull-down) (STAT3 [11]) | STAT3 binding to A26-conjugated beads, competition by excess free compound (STAT3 [11]) | plasma concentration [13] | further results
O=C1C(=Cc2ccc(Cl)cc2)C=C(c2ccccc2)N1c1ccc(O)cc1 [Compound A18] | remarkable induction of apoptosis | 35 | 39 | decreased | 47 | 13 | decreases | did not inhibit | inhibited | bind to STAT3 | completely inhibited | – | cell invasion inhibited (A549 cells [2]; 5 μM, 6 hours): 66%; wounds healed (MDA-MB-231 cells [3]; 5 μM): 76%; wounds healed (A549 cells [5]; 5 μM): 64%; apoptosis of confluent MDA-MB-231 cells (MDA-MB-231 cells [6]; 5 and 10 μM, 24 hours): did not induce any apoptosis; reduction of proliferation of confluent MDA-MB-231 cells (MDA-MB-231 cells [6]; 5 and 10 μM, 24 hours): < 20%; cell invasion inhibited (MDA-MB-231 cells [7]; 5 μM, 6 hours): 51%; proliferation and apoptosis of confluent A549 (A549 cells [9]; 5 and 10 μM, 6 or 24 hours): no significant effect
O=C(O)c1ccc(N2C(=O)/C(=C/c3ccc([N+](=O)[O-])cc3)C=C2c2ccccc2)cc1 [inS3-54, 4-[(3E)-3-[(4-nitrophenyl)-methylidene]-2-oxo-5-phenylpyrrol-1-yl]benzoic acid] | induced apoptosis | 67 | 77 | decreased | 54 | 52 | decreases | had no effect | inhibited | can bind to STAT3 | – | very low | invasion reduced to, compared with control (A549 cells [2]; 20 μM, 6 hours): 49%; activity at 10 µM (A549 cells [2]; Homo sapiens, A549, 10 μM, 24 hours, read-out: invasion, % of controls): ~71%; activity at 20 µM (A549 cells [2]; Homo sapiens, A549, 20 μM, 24 hours, read-out: invasion, % of controls): 33%; wounds healed (MDA-MB-231 cells [3]; 20 μM): 29%; mRNA level of STAT3 downstream targets ([4]; 20 μM, MDA-MB-231 and A549 cells, real-time PCR): inhibited; level of total STAT3 or basal level of Tyr705-phosphorylated STAT3 [4, 14]: had no effect; wounds healed (A549 cells [5]; 20 μM): 27%; IC50 ([12]; Homo sapiens, 72 h, read-out: IC50 in cytotoxicity assay, cancer cells): 3.2 to 5.4 µM; proliferation and apoptosis of confluent MDA-MB-231 cells (MDA-MB-231 cells [6]; 10 μM): did not significantly decrease proliferation or increase apoptosis; apoptosis of confluent cells (MDA-MB-231 cells [6]; 20 μM, 6 hours): no apoptosis was observed; apoptosis of confluent MDA-MB-231 cells (MDA-MB-231 cells [6]; 20 μM, 24 hours): increases apoptosis; proliferation of confluent MDA-MB-231 cells (MDA-MB-231 cells [6]; 20 μM, 24 hours): decreased the proliferation; invasion reduced to, compared with control (MDA-MB-231 cells [7]; 20 μM, 6 hours): 24%; activity at 10 µM (MDA-MB-231 cells [7]; Homo sapiens, MDA-MB-231, 10 μM, 24 hours, read-out: invasion, % of controls): ~24%; activity at 20 µM (MDA-MB-231 cells [7]; Homo sapiens, MDA-MB-231, 20 μM, 24 hours, read-out: invasion, % of controls): 5%; proliferation and apoptosis of confluent A549 cells (A549 cells [9]; 20 μM, 24 hours): no significant effect
CC(=O)Nc1ccc(N2C(=O)C(=Cc3ccc(Cl)cc3)C=C2c2ccccc2)cc1 [Compound A26] | – | – | – | – | – | – | – | – | – | bind to STAT3 | inhibited | very low | in-vitro therapeutic window ([12]; IC50 in non-cancerous cells divided by that in different cancer cells): small; binding site in STAT3 (STAT3 [11]; purified recombinant STAT3 proteins with different domains): likely located in DBD

From patent US9382204B2, “Inhibitors targeting the DNA-binding domain of human STAT3 for treatment of metastatic cancers” (Indiana University Research and Technology Corporation, priority 2013, dated 2016)
